Data published in patent publication US5750566A, “Synthetic excitatory amino acids” (Eli Lilly and Company, priority 1995, dated 1998).
Structures can show the parent of a compound that is named as a salt.

Assays:
[1] = tested on: metabotropic glutamate receptors; assay: Displacement of (1S,3R)-ACPD-sensitive [3H]glutamate binding to rat brain cell membranes (receptor binding); settings: crude membranes of rat forebrain; compounds 3 and 8 tested as mixture of enantiomers, 6 and 7 as pure enantiomers; read-out: IC50 (concentration that inhibited 50% [3H]glutamate binding)
Procedure: The binding of [^3 H]glutamate ([^3 H]Glu) was conducted with crude membranes of rat forebrain as described by Schoepp and True. Schoepp and True, Neuroscience Lett., 145, 100-104 (1992); Wright, McDonald, and Schoepp, J. Neurochem., 63, 938-945 (1994). The concentration of the formula I compound that inhibited 50% binding (IC50), or the percent displacement of [^3 H]Glu at a 10 μM or 100 μM concentration of the formula I compound, is shown in Table I.

[2] = biological target: cAMP-linked metabotropic glutamate receptors (rat cerebral cortex); assay: Inhibition of forskolin-stimulated cAMP formation in rat cerebral cortex; assay type: biochemical
Procedure: (§1) The formula I compounds are effective in affecting the cAMP-linked metabotropic glutamate receptors. Representative compounds were tested for their ability to decrease forskolin-stimulated cAMP formation in the rat hippocampus and the rat cerebral cortex, using the procedures described in Schoepp and Johnson. Schoepp and Johnson, Neurochem. Int., 22, 277-283 (1993).

[3] = biological target: cAMP-linked metabotropic glutamate receptors (rat hippocampus); assay: Inhibition of forskolin-stimulated cAMP formation in rat hippocampus; assay type: biochemical
Procedure: as §1

mice [4] = assay: Automated elevated plus maze model of anxiety; assay type: in vivo, mouse (male NIH Swiss); settings: five-minute test
Procedure: The elevated plus maze model is based upon the natural aversion of rodents to height and open spaces.
(§2) Male Long Evans rats (180-400 g) or male NIH Swiss mice (18-35 g) were obtained from Harlan Sprague-Dawley, Cumberland, Ind., USA and acclimated at least 3 days before testing. Animals were housed at 23±2° C.(relative humidity 30% to 70%) and given Purina Certified Rodent Chow and water ad libitum. The photoperiod was 12 hours of light and 12 hours of dark, with dark onset at approximately 1800 hours.
(§3) Test compounds were dissolved in a vehicle of purified water and neutralized with 5N NaOH to a pH of 7-8 when applicable. […] Control animals received the respective vehicle.
Automated Elevated Plus Maze
Construction of the elevated plus-maze was based on a design validated for mice by Lister (1987). The entire maze was made of clear Plexiglas. The maze was comprised of two open arms (30×5×0.25 cm) and two enclosed arms (30×5×15 cm). The floor of each maze arm was corrugated to provide texture. The arms extended from a central platform and angled at 90 degrees from each other. The maze was elevated to a height of 45 cm above the floor and illuminated by red light. Individual infrared photocells were mounted along each arm of the maze to monitor closed, open, or nosepoke activity. Mice were individually placed on the central platform of the maze and the number of closed arm, open arm, and nosepoke (poking head only into open arm from closed arm of maze) counts were recorded and used as a measure of arm entries and time spent on various sections of the maze over a five-minute test period.

Long Evans rats [5] = assay: Auditory startle after nicotine withdrawal; assay type: in vivo, rat (Long Evans)
Procedure: This cessation of drug dosing elicits an increased startle response to auditory stimuli.
Long Evans rats (200-400 g; Harlan Sprague Dawley, Columbus, Ind.) were individually housed in a controlled environment on a 12 hour light-dark cycle and given free access to food (Purina Rodent Chow) and water. Rats were anesthetized with isoflurane and Alzet osmotic pumps (Alza Corporation) were implanted subcutaneously.
Test compound was dissolved in a vehicle of purified water and neutralized with 5N NaOH to a PH of 7-8 when applicable. […] Nicotine (Research Biochemicals Inc., Natick, Mass.) was dissolved in saline. Control animals received the respective vehicle.
Twelve days following subcutaneous implantation of pumps, rats were anesthetized with isoflurane and the pumps were removed. During withdrawal (following pump removal), the auditory startle response (peak amplitude, Vmax) of individual rats was recorded using San Diego Instruments startle chambers (San Diego, Calif.). Startle sessions consisted of a 5-minute adaptation period at a background noise level of 70±2 dBA immediately followed by 25 presentations of auditory stimuli (120±2 dBA noise, 50 ms duration) presented at 8-second intervals. Peak startle amplitudes were then averaged for all 25 presentations of stimuli for each session and all data are presented here as overall session means. Auditory startle responding was evaluated daily on withdrawal days 1,2,3,4 or 5. Baseline startle responding was evaluated prior to pump removal on day 12.

Long Evans rats [6] = assay: Auditory startle after diazepam withdrawal; assay type: in vivo, rat (Long Evans)
Long Evans rats [7] = assay: Fear potentiated startle model of anxiety; assay type: in vivo, rat (male Long Evans)
From the text: In the fear potentiated startle model, animals are exposed to a neutral stimulus such as light (conditioned stimulus) with an aversive stimulus such as a shock (unconditioned stimulus). Following conditioning, when the animals are presented with a loud acoustic stimulus, larger startle responses are elicited when the startle stimulus is preceded by light.
as §2, §3
SL-LAB (San Diego Instruments, San Diego, Calif.) chambers were used for conditioning sessions and for the production and recording of startle responses. A classical conditioning procedure was used to produce potentiation of startle responses. Briefly, on the first 2 days, rats were placed into dark startle chambers in which shock grids were installed. […]

[8] = tested on: cAMP-linked metabotropic glutamate receptors; settings: literature; cited from earlier work
[9] = tested on: PI-linked metabotropic glutamate receptors; settings: literature; for L-CCG-I at higher concentrations; cited from earlier work
Long Evans rats [10] = settings: statement about clinically proven anxiolytics; cited from earlier work
mice [11] = settings: statement about clinically proven anxiolytics; cited from earlier work

N[C@@]1(C(=O)O)CC[C@H]2[C@H](C(=O)O)[C@H]21 (racemic) [Compound 3, (1SR,2SR,5RS,6SR) 2-Aminobicyclo[3.1.0]hexane-2,6-dicarboxylic Acid]
IC50 [1]: 320 nM

N[C@@]1(C(=O)O)CC[C@H]2[C@@H](C(=O)O)[C@H]21 (racemic) [Compound 8, (1SR,2SR,5RS,6RS) 2-Aminobicyclo[3.1.0]hexane-2,6-dicarboxylic Acid]
IC50 [1]: 3200 nM

NC1(C(=O)O)CCC2C(C(=O)O)C21 (single isomer, unassigned; (+)) [Compound 6, (+)-2-Aminobicyclo[3.1.0]hexane-2,6-dicarboxylic Acid]
IC50 [1]: 180 nM
EC50 [2]: 55 ± 17 nM
EC50 [3]: 36 ± 15 nM
nosepoke counts (mice [4]; oral, 3 mg/kg): significant increase
open arm activity (mice [4]; oral, 1, 3 and 10 mg/kg): significant increases
closed arm activity counts (mice [4]; oral, any dose): not significantly altered
attenuation of heightened startle (Long Evans rats [5]; 3 mg/kg, p.o., compared to nicotine controls): significant attenuation
ED50 (Long Evans rats [5]; Rattus norvegicus, ip, compared to nicotine controls, route printed i.p., read-out: ED50, attenuation of nicotine withdrawal-induced heightened startle): 0.7 mg/kg
withdrawal-induced increase in startle responding after pretreatment (Long Evans rats [5]; pretreatment, nicotine withdrawal): dose-dependent blockade
attenuation of enhanced startle (Long Evans rats [6]; 0.1 and 0.3 mg/kg, p.o., compared to control responding): significantly attenuated enhanced startle
ED50 (Long Evans rats [6]; Rattus norvegicus, po, read-out: ED50, attenuation of diazepam withdrawal-enhanced startle, p.o., compared to control responding): 0.1 mg/kg
expected increase in startle responding following cessation of diazepam, after pretreatment (Long Evans rats [6]; pretreatment, diazepam withdrawal): blocked the expected increase in startle responding

NC1(C(=O)O)CCC2C(C(=O)O)C21 (single isomer, unassigned; (-)) [Compound 7, (-)-2-Aminobicyclo[3.1.0]hexane-2,6-dicarboxylic Acid]
IC50 [1]: 161000 nM
EC50 [2]: 22000 ± 3400 nM
EC50 [3]: 29400 ± 3040 nM
ED50, fear potentiated startle (Long Evans rats [7]; p.o., Inactive = at highest dose tested, 10 mg/kg p.o.): Inactive

N[C@@]1(C(=O)O)CC[C@@H](C(=O)O)C1 [1S,3R-ACPD, (1S,3R)-1-Aminocyclo-pentane-1,3-dicarboxylic acid]
agonist activity at cAMP-linked metabotropic glutamate receptors [8]: agonist of PI-linked and cAMP-linked metabotropic glutamate receptors
activity at PI-linked metabotropic glutamate receptors [9]: agonist of PI-linked and cAMP-linked metabotropic glutamate receptors

CN1C(=O)CN=C(c2ccccc2)c2cc(Cl)ccc21 [Diazepam, reference compound]
ED50 (Long Evans rats [7]; Rattus norvegicus, po, read-out: ED50, fear potentiated startle): 0.4 mg/kg
increased reactivity following diazepam cessation with diazepam replacement (Long Evans rats [6]; 30 mg/kg, i.p. daily 60 minutes before evaluation, days 1 through 4, vs diazepam control): did not show increased reactivity
increased startle responding with diazepam replacement (Long Evans rats [6]; replacement 3 and 10 mg/kg, i.p.): did not block the increased startle responding
increased reactivity with diazepam replacement (Long Evans rats [6]; replacement 3 and 10 mg/kg, i.p., in some instances): further increased reactivity
reduction of fear (increased startle response) associated with presentation of light (Long Evans rats [10]): effective at reducing the fear (increased startle response)
reduction of fear of open spaces in elevated plus maze (mice [11]): reducing the fear of open spaces

N[C@H](C(=O)O)[C@H]1C[C@@H]1C(=O)O [L-CCG-I, (2S,3S,4S)-2-(carboxycyclopropyl)glycine]
agonist activity at cAMP-linked metabotropic glutamate receptors [8]: selective cAMP-linked metabotropic glutamate receptor agonist
activity at PI-linked metabotropic glutamate receptors [9]: activity at PI-linked metabotropic receptors

O=C1CC2(CCCC2)CC(=O)N1CCCCN1CCN(c2ncccn2)CC1 [buspirone hydrochloride]
reduction of fear (increased startle response) associated with presentation of light (Long Evans rats [10]): effective at reducing the fear (increased startle response)
reduction of fear of open spaces in elevated plus maze (mice [11]): reducing the fear of open spaces

CN1CCC[C@H]1c1cccnc1 [nicotine, reference compound]
heightened startle response with nicotine replacement dose (Long Evans rats [5]; 0.03 mg/kg, i.p., or higher): did not display the same heightened startle response
auditory startle responding following cessation of chronic nicotine exposure (Long Evans rats [5]; first three days after cessation, vs control rats receiving water, nicotine 6 mg/kg/day s.c.): significantly increased
